In PubChem BioAssay (NCI):
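Exposure lasted 48 hours, with cells grown in 96-well plates and compounds tested at five concentrations. The concentration for full growth arrest is given as TGI.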

How the values were obtained:
Assay in all cases: NCI tumour cell line growth inhibition, 48 h
[1] = system: OVCAR-8 ovarian
[2] = system: XF 498 CNS
[3] = system: HOP-62 NSCLC
[4] = system: M19-MEL melanoma
[5] = system: SF-539 CNS
[6] = system: A549 NSCLC
[7] = system: HOP-18 NSCLC
[8] = system: HT29 colon
[9] = system: DLD-1 colon
[10] = system: SR leukemia
[11] = system: DMS 273 small cell lung
[12] = system: SK-MEL-5 melanoma
[13] = system: OVCAR-5 ovarian
[14] = system: HCT-116 colon
[15] = system: SF-268 CNS
[16] = system: HCC-2998 colon
[17] = system: DMS 114 small cell lung
[18] = system: HCT-15 colon
[19] = system: KM12 colon
[20] = system: COLO 205 colon
[21] = system: EKVX NSCLC
[22] = system: OVCAR-3 ovarian
[23] = system: 786-0 renal
[24] = system: UACC-257 melanoma
[25] = system: SK-MEL-28 melanoma
[26] = system: RPMI-8226 leukemia
[27] = system: SNB-75 CNS
[28] = system: LXFL 529 NSCLC
[29] = system: UACC-62 melanoma
[30] = system: MALME-3M melanoma
[31] = system: RXF 393 renal
[32] = system: MOLT-4 leukemia
[33] = system: KM20L2 colon
[34] = system: ACHN renal
[35] = system: SNB-78 CNS
[36] = system: IGROV1 ovarian
[37] = system: SN12C renal
[38] = system: UO-31 renal
[39] = system: TK-10 renal
[40] = system: SF-295 CNS
[41] = system: SW-620 colon
[42] = system: SK-OV-3 ovarian
[43] = system: M14 melanoma
[44] = system: HOP-92 NSCLC
[45] = system: NCI-H23 lung
[46] = system: NCI-H226 lung
[47] = system: NCI-H460 lung
[48] = system: NCI-H522 lung
[49] = system: SK-MEL-2 melanoma
[50] = system: LOX IMVI melanoma
[51] = system: U251 CNS
[52] = system: SNB-19 CNS
[53] = system: CAKI-1 renal
[54] = system: OVCAR-4 ovarian
[55] = system: K-562 leukemia
[56] = system: CCRF-CEM leukemia

Q: For CC[C@H]1CC(=O)c2c(cc3c(c2O)C(=O)c2ccccc2C3=O)[C@@]1(C#N)C(=O)OC(C)(C)C, which TGI [1] is on record?
A: 15 µM

Q: And the TGI [2]?
A: 7.67 µM

Q: And the TGI [3]?
A: 5.82 µM

Q: What about the TGI [4] of the same molecule?
A: 15.8 µM

Q: What about the TGI [5] of the same molecule?
A: 14.3 µM

Q: And the TGI [6]?
A: > 100 µM

Q: And the TGI [7]?
A: 14.3 µM

Q: And the TGI [8]?
A: 10.1 µM

Q: What about the TGI [9] of the same molecule?
A: 7.08 µM

Q: And the TGI [10]?
A: > 100 µM

Q: What about the TGI [11] of the same molecule?
A: 5.97 µM

Q: And the TGI [12]?
A: 3.48 µM

Q: And the TGI [13]?
A: 46.5 µM

Q: And the TGI [14]?
A: 8.15 µM

Q: And the TGI [15]?
A: > 100 µM

Q: What about the TGI [16] of the same molecule?
A: 17.9 µM

Q: What about the TGI [17] of the same molecule?
A: 7.97 µM

Q: What about the TGI [18] of the same molecule?
A: 5.07 µM

Q: What about the TGI [19] of the same molecule?
A: 7.77 µM

Q: And the TGI [20]?
A: 3.58 µM

Q: And the TGI [21]?
A: 36.2 µM

Q: What about the TGI [22] of the same molecule?
A: 11 µM

Q: What about the TGI [23] of the same molecule?
A: 46.4 µM

Q: What about the TGI [24] of the same molecule?
A: 5.55 µM

Q: And the TGI [25]?
A: 23 µM

Q: What about the TGI [26] of the same molecule?
A: > 100 µM

Q: And the TGI [27]?
A: 32 µM

Q: And the TGI [28]?
A: > 100 µM

Q: And the TGI [29]?
A: 50.6 µM

Q: What about the TGI [30] of the same molecule?
A: 17.8 µM

Q: And the TGI [31]?
A: 23.1 µM

Q: And the TGI [32]?
A: 8.62 µM

Q: What about the TGI [33] of the same molecule?
A: 47.4 µM

Q: What about the TGI [34] of the same molecule?
A: 31.7 µM

Q: What about the TGI [35] of the same molecule?
A: > 100 µM

Q: What about the TGI [36] of the same molecule?
A: 7.11 µM

Q: And the TGI [37]?
A: 12.7 µM

Q: What about the TGI [38] of the same molecule?
A: 8.6 µM

Q: What about the TGI [39] of the same molecule?
A: 37.5 µM

Q: What about the TGI [40] of the same molecule?
A: 20.9 µM

Q: What about the TGI [41] of the same molecule?
A: 13.4 µM

Q: And the TGI [42]?
A: > 100 µM

Q: What about the TGI [43] of the same molecule?
A: 14.5 µM

Q: And the TGI [44]?
A: > 100 µM

Q: And the TGI [45]?
A: 11.2 µM

Q: What about the TGI [46] of the same molecule?
A: 8.82 µM

Q: And the TGI [47]?
A: 7.54 µM

Q: What about the TGI [48] of the same molecule?
A: 6.74 µM

Q: What about the TGI [49] of the same molecule?
A: 5.85 µM

Q: What about the TGI [50] of the same molecule?
A: 36.8 µM

Q: What about the TGI [51] of the same molecule?
A: 53.3 µM

Q: O=C(O)[C@@H](NS(=O)(=O)c1ccc(F)cc1)c1ccccc1 was tested. Which TGI [1] did it give?
A: > 100 µM

Q: What about the TGI [2] of the same molecule?
A: > 100 µM

Q: And the TGI [3]?
A: > 100 µM

Q: And the TGI [4]?
A: > 100 µM

Q: What about the TGI [5] of the same molecule?
A: > 100 µM

Q: And the TGI [6]?
A: > 100 µM

Q: And the TGI [7]?
A: > 100 µM

Q: And the TGI [8]?
A: > 100 µM

Q: What about the TGI [9] of the same molecule?
A: > 100 µM

Q: And the TGI [11]?
A: > 100 µM

Q: And the TGI [12]?
A: > 100 µM

Q: And the TGI [13]?
A: > 100 µM

Q: And the TGI [52]?
A: > 100 µM

Q: And the TGI [14]?
A: > 100 µM

Q: What about the TGI [15] of the same molecule?
A: > 100 µM

Q: And the TGI [16]?
A: > 100 µM

Q: What about the TGI [17] of the same molecule?
A: > 100 µM

Q: And the TGI [18]?
A: > 100 µM

Q: What about the TGI [53] of the same molecule?
A: > 100 µM

Q: And the TGI [20]?
A: > 100 µM

Q: And the TGI [21]?
A: > 100 µM

Q: And the TGI [22]?
A: > 100 µM

Q: What about the TGI [23] of the same molecule?
A: > 100 µM

Q: What about the TGI [54] of the same molecule?
A: > 100 µM

Q: And the TGI [55]?
A: > 100 µM

Q: And the TGI [24]?
A: > 100 µM

Q: What about the TGI [25] of the same molecule?
A: > 100 µM

Q: What about the TGI [26] of the same molecule?
A: > 100 µM

Q: What about the TGI [27] of the same molecule?
A: > 100 µM

Q: And the TGI [28]?
A: > 100 µM

Q: And the TGI [29]?
A: > 100 µM

Q: What about the TGI [30] of the same molecule?
A: > 100 µM

Q: What about the TGI [31] of the same molecule?
A: > 100 µM

Q: What about the TGI [32] of the same molecule?
A: > 100 µM

Q: What about the TGI [33] of the same molecule?
A: > 100 µM

Q: What about the TGI [34] of the same molecule?
A: > 100 µM

Q: And the TGI [35]?
A: > 100 µM

Q: What about the TGI [36] of the same molecule?
A: > 100 µM

Q: What about the TGI [37] of the same molecule?
A: > 100 µM

Q: And the TGI [38]?
A: > 100 µM

Q: And the TGI [39]?
A: > 100 µM

Q: And the TGI [40]?
A: > 100 µM

Q: And the TGI [41]?
A: > 100 µM

Q: What about the TGI [42] of the same molecule?
A: > 100 µM

Q: What about the TGI [43] of the same molecule?
A: > 100 µM

Q: What about the TGI [45] of the same molecule?
A: > 100 µM

Q: What about the TGI [46] of the same molecule?
A: > 100 µM

Q: And the TGI [47]?
A: > 100 µM

Q: What about the TGI [48] of the same molecule?
A: > 100 µM

Q: And the TGI [49]?
A: > 100 µM

Q: What about the TGI [56] of the same molecule?
A: > 100 µM

Q: What about the TGI [50] of the same molecule?
A: > 100 µM

Q: And the TGI [51]?
A: > 100 µM
